The results in this text go back to article PMC9574855 (Journal of Medicinal Chemistry, 2022).

The test system of one experiment is 403 WT human kinases. Kind of experiment: DiscoverX scanMAX kinome-wide selectivity at 1 μM.
Details: not given
Format: binding.
In the case of `CC(C)(C#Cc1ccc2[nH]c3c(c2c1)-c1nc(N)ncc1CCC3)CO` [compound 23, 4-(2-Amino-5,6,7,8-tetrahydropyrimido[4′,5′:3,4]cyclohepta[1,2-b]indol-11-yl)-2,2-dimethylbut-3-yn-1-ol], the “# scanMAX kinases with PoC < 10” value was 11–14.

For the compound `CC(C)(O)CC#Cc1ccc2[nH]c3c(c2c1)-c1nc(N)ncc1CCC3` [compound 24, 5-(2-Amino-5,6,7,8-tetrahydropyrimido[4′,5′:3,4]cyclohepta[1,2-b]indol-11-yl)-2-methylpent-4-yn-2-ol], the “# scanMAX kinases with PoC < 10” value is 11–14.

In the case of `Nc1ncc2c(n1)-c1c([nH]c3ccc(C#Cc4ccncc4)cc13)CCCC2` [compound 6, 12-(Pyridin-4-ylethynyl)-6,7,8,9-tetrahydro-5H-pyrimido[4′,5′:3,4]cycloocta[1,2-b]indol-2-amine], the “# scanMAX kinases with PoC < 10” value came to 0.

Consider `Cn1cc(-c2ccc3[nH]c4c(c3c2)-c2nc(N)ncc2CCC4)cn1` [compound 13, 11-(1-Methyl-1H-pyrazol-4-yl)-5,6,7,8-tetrahydropyrimido[4′,5′:3,4]cyclohepta[1,2-b]indol-2-amine], for which the “# scanMAX kinases with PoC < 10” value was 8.

With `CC(C)C(O)C#Cc1ccc2[nH]c3c(c2c1)-c1nc(N)ncc1CCC3` (stereo not drawn) [compound 11, 1-(2-Amino-5,6,7,8-tetrahydropyrimido[4′,5′:3,4]cyclohepta[1,2-b]indol-11-yl)-4-methylpent-1-yn-3-ol], the “# scanMAX kinases with PoC < 10” value was 7.

In the case of `Nc1ncc2c(n1)-c1c([nH]c3ccc(C#Cc4ccncc4)cc13)CCC2` [compound 5, 11-(Pyridin-4-ylethynyl)-5,6,7,8-tetrahydropyrimido[4′,5′:3,4]cyclohepta[1,2-b]indol-2-amine], the “# scanMAX kinases with PoC < 10” value turned out to be 5.

For the compound `CC(C)C(O)C#Cc1ccc2[nH]c3c(c2c1)-c1nc(N)ncc1CC3` (stereo not drawn) [compound 10, 1-(2-Amino-6,7-dihydro-5H-pyrimido[5,4-c]carbazol-10-yl)-4-methylpent-1-yn-3-ol], the “# scanMAX kinases with PoC < 10” value worked out at 11.

Regarding `CN(C)CC#Cc1ccc2[nH]c3c(c2c1)-c1nc(N)ncc1CCCC3` [compound 29, 12-(3-(Dimethylamino)prop-1-yn-1-yl)-6,7,8,9-tetrahydro-5H-pyrimido[4′,5′:3,4]cycloocta[1,2-b]indol-2-amine], the “# scanMAX kinases with PoC < 10” value is 0.

Take `Nc1ncc2c(n1)-c1c([nH]c3ccc(-c4ccc(F)cc4)cc13)CCCC2` [compound 9, 12-(4-Fluorophenyl)-6,7,8,9-tetrahydro-5H-pyrimido[4′,5′:3,4]cycloocta[1,2-b]indol-2-amine]: the “# scanMAX kinases with PoC < 10” value is given as 2.

Regarding `CC(C)(O)C#Cc1ccc2[nH]c3c(c2c1)-c1nc(N)ncc1CCCC3` [compound 2, 4-(2-Amino-6,7,8,9-tetrahydro-5H-pyrimido[4′,5′:3,4]cycloocta[1,2-b]indol-12-yl)-2-methylbut-3-yn-2-ol], the “# scanMAX kinases with PoC < 10” value is reported as 3.

Regarding `Cn1cncc1C#Cc1ccc2[nH]c3c(c2c1)-c1nc(N)ncc1CCCC3` [compound 27, 12-((1-Methyl-1H-imidazol-5-yl)ethynyl)-6,7,8,9-tetrahydro-5H-pyrimido[4′,5′:3,4]cycloocta[1,2-b]indol-2-amine], the “# scanMAX kinases with PoC < 10” value is recorded as 0.

As to `Nc1ncc2c(n1)-c1c([nH]c3ccc(C#Cc4ccncc4)cc13)CC2` [compound 4, 10-(Pyridin-4-ylethynyl)-6,7-dihydro-5H-pyrimido[5,4-c]carbazol-2-amine], the “# scanMAX kinases with PoC < 10” value is recorded as 1.

With `Nc1ncc2c(n1)-c1c([nH]c3ccc(-c4ccc(F)cc4)cc13)CC2` [compound 7, 10-(4-Fluorophenyl)-6,7-dihydro-5H-pyrimido[5,4-c]carbazol-2-amine], the “# scanMAX kinases with PoC < 10” value was 3.

With `CC(C)(O)C#Cc1ccc2[nH]cc(-c3ccnc(N)n3)c2c1` [compound 3, 4-(3-(2-Aminopyrimidin-4-yl)-1H-indol-5-yl)-2-methylbut-3-yn-2-ol], the “# scanMAX kinases with PoC < 10” value came out at 34.

On to `CC(C)(O)C#Cc1ccc2[nH]c3c(c2c1)-c1nc(N)ncc1CCC3` [AMG28, 4-(2-Amino-5,6,7,8-tetrahydropyrimido[4′,5′:3,4]cyclohepta[1,2-b]indol-11-yl)-2-methylbut-3-yn-2-ol, reference compound], for which the “# scanMAX kinases with PoC < 10” value is 21.

Consider `Cn1cc(-c2ccc3[nH]c4c(c3c2)-c2nc(N)ncc2CC4)cn1` [compound 12, 10-(1-Methyl-1H-pyrazol-4-yl)-6,7-dihydro-5H-pyrimido[5,4-c]carbazol-2-amine], for which the “# scanMAX kinases with PoC < 10” value stood at 7.

With `COC(C)(C)C#Cc1ccc2[nH]c3c(c2c1)-c1nc(N)ncc1CCC3` [compound 20, 11-(3-Methoxy-3-methylbut-1-yn-1-yl)-5,6,7,8-tetrahydropyrimido[4′,5′:3,4]cyclohepta[1,2-b]indol-2-amine], the “# scanMAX kinases with PoC < 10” value is 11–14.

Turning to `CC(C)(O)C#Cc1ccc2[nH]c3c(c2c1)-c1nc(N)ncc1CC3` [compound 1, 4-(2-Amino-6,7-dihydro-5H-pyrimido[5,4-c]carbazol-10-yl)-2-methylbut-3-yn-2-ol], the “# scanMAX kinases with PoC < 10” value is listed as 20.

For another experiment, the target named is PIKfyve (Homo sapiens, UniProt Q9Y2I7). Kind of experiment: cell-based. Conditions: PIKfyve NB IC50, NanoBRET, HEK293 cells. (In general: Bioluminescence resonance energy transfer reports proximity on the nanometre scale.)
Sequence of PIKfyve (Q9Y2I7 whole entry): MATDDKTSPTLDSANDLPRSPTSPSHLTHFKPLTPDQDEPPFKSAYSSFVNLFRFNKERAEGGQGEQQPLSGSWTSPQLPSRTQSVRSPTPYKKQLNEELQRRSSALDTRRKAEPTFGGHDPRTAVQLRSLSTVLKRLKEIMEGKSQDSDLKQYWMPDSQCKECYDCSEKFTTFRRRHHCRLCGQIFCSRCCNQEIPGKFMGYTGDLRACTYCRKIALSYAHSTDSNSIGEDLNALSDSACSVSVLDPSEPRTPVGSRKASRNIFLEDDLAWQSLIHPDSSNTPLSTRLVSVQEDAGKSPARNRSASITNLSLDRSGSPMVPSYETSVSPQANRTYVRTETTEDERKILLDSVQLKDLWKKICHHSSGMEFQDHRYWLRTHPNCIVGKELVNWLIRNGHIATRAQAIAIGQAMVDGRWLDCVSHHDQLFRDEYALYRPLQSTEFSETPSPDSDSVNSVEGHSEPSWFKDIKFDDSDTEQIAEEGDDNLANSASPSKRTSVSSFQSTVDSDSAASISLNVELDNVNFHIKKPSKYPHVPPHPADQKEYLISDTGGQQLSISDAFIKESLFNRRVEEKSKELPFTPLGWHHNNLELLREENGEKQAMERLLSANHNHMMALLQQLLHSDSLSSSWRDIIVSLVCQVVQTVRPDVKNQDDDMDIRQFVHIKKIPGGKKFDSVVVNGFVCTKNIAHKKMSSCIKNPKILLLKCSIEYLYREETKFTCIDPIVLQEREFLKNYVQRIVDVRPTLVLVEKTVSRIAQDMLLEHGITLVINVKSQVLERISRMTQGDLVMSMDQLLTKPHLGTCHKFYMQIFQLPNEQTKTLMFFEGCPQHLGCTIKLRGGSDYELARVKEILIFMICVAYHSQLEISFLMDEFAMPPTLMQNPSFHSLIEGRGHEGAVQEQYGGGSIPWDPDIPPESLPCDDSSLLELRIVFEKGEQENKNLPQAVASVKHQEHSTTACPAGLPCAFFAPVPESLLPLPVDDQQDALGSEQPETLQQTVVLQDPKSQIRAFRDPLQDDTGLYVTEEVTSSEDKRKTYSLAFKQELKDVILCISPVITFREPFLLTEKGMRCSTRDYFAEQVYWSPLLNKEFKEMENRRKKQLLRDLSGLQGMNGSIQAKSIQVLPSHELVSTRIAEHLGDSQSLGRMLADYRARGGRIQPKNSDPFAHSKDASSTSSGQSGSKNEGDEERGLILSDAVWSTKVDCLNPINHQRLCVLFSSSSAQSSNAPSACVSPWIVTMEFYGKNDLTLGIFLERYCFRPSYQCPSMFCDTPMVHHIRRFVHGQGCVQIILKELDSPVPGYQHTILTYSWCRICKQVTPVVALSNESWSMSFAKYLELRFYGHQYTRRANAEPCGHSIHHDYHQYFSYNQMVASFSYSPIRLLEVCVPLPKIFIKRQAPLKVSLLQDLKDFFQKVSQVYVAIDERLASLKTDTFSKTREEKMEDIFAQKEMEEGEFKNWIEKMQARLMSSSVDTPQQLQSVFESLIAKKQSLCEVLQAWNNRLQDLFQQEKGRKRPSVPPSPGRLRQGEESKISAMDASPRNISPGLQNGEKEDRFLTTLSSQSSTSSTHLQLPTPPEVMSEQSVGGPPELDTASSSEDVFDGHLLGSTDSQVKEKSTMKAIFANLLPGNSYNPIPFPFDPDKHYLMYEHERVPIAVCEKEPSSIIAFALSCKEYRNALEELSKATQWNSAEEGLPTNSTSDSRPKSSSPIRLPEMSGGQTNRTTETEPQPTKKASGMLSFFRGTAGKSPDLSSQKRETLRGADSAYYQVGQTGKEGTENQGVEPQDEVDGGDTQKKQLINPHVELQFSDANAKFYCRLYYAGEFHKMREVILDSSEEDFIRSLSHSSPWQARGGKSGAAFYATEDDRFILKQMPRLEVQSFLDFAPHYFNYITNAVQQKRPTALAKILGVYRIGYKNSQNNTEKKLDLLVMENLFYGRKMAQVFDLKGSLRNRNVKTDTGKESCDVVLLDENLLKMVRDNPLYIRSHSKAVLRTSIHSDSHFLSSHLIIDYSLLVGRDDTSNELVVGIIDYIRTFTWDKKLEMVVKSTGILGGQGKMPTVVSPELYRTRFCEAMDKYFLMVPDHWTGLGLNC
`CCC(C)(O)C#Cc1ccc2[nH]c3c(c2c1)-c1nc(N)ncc1CCC3` (stereo not drawn) [compound 25, 1-(2-Amino-5,6,7,8-tetrahydropyrimido[4′,5′:3,4]cyclohepta[1,2-b]indol-11-yl)-3-methylpent-1-yn-3-ol]: the IC50 was under 20 nM.

`CCC(O)(C#Cc1ccc2[nH]c3c(c2c1)-c1nc(N)ncc1CCC3)CC` [compound 26, 1-(2-Amino-5,6,7,8-tetrahydropyrimido[4′,5′:3,4]cyclohepta[1,2-b]indol-11-yl)-3-ethylpent-1-yn-3-ol]: the IC50 was under 20 nM.

In turn, `CC(O)C#Cc1ccc2[nH]c3c(c2c1)-c1nc(N)ncc1CCC3` (stereo not drawn) [compound 21, 4-(2-Amino-5,6,7,8-tetrahydropyrimido[4′,5′:3,4]cyclohepta[1,2-b]indol-11-yl)but-3-yn-2-ol] registered an IC50 of under 20 nM.

Another experiment deals with SARS-CoV-2-nLuc. Kind of experiment: microbe, parasite or virus in culture. Format: cell-based. To be noted: Severe acute respiratory syndrome coronavirus 2, A549-ACE2, 46 h, read-out: SARS-CoV-2 replication IC50.
As for `CCC(O)(C#Cc1ccc2[nH]c3c(c2c1)-c1nc(N)ncc1CCC3)CC` [compound 26, 1-(2-Amino-5,6,7,8-tetrahydropyrimido[4′,5′:3,4]cyclohepta[1,2-b]indol-11-yl)-3-ethylpent-1-yn-3-ol], the IC50 came to 23.9 nM.

Another experiment deals with His6-SARS-CoV-2 spike protein uptake by HEK293T-ACE2 cells. Kind of experiment: Spike uptake assay in HEK293T-ACE2 cells. The format is cell-based, human. To be noted: 1 μM.
Consider `CCC(=O)Nc1cc(Nc2cc(NC3CC3)n3ncc(C#N)c3n2)ccc1C` [SGC-CK2-1, reference compound], for which the “His6-SARS-CoV-2 spike protein uptake” value is given as “efficiently decreased spike protein uptake”.

The subject of a further experiment is MHV-nLuc virus. As to the kind of experiment: microbe, parasite or virus in culture. The format is cell-based, mouse hepatitis virus (MHV). To be noted: Murine coronavirus, read-out: MHV replication pIC50 (converted).
For `CCC(O)(C#Cc1ccc2[nH]c3c(c2c1)-c1nc(N)ncc1CCC3)CC` [compound 26, 1-(2-Amino-5,6,7,8-tetrahydropyrimido[4′,5′:3,4]cyclohepta[1,2-b]indol-11-yl)-3-ethylpent-1-yn-3-ol], the IC50 is 74.1 nM.
